The target of data set [1] is Botulinum neurotoxin type A (Clostridium botulinum, UniProt P0DPI0). Briefly: Inhibition of Clostridium botulinum BoNT/A light chain assessed as inhibition constant at 10 nM using SNAPtide flp6 as substrate measured after 30 mins by FRET assay.
For data set [2], the target named is Botulinum neurotoxin type A (Clostridium botulinum) (UniProt P0DPI0). Put plainly: Inhibition of BoNT/A light chain at 1 to 32 uM using SNAPtide flp6 as substrate measured after 30 mins by FRET assay. The settings on record: dose 1-32 µM, TDE = time-dependent effect.
Chain of Botulinum neurotoxin type A (Clostridium botulinum) (P0DPI0 2-448 limits assumed): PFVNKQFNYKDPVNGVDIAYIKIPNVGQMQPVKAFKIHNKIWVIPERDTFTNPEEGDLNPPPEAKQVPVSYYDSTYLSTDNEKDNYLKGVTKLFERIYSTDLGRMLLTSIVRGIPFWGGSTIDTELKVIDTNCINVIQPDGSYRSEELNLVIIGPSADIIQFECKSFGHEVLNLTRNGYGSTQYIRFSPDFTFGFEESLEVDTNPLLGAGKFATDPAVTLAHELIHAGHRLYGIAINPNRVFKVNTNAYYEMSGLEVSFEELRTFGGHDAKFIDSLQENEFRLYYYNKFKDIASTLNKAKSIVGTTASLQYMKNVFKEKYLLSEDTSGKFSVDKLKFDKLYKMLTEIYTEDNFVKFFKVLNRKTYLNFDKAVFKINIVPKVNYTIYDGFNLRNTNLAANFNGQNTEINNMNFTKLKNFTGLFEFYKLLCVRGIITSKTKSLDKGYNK
Data set [3] shares this target. Put plainly: Inhibition of Clostridium botulinum BoNT/A light chain assessed as inhibition constant at 6 to 30 uM using SNAPtide flp6 as substrate measured after 30 mins by FRET assay. The settings on record: dose 6-30 µM.
The nature of data set [4]: Half life of compound. Format: physicochemical.

The values that follow come from ChEMBL document CHEMBL5036379, “Identification of Slow-Binding Inhibitors of the BoNT/A Protease” (ACS Med Chem Lett, 2022).

Active and inactive are the calls of the source. The rule behind the calls is not given here.

Chain of Botulinum neurotoxin type A (P0DPI0 2-448 limits assumed): as above

Turning to `C=CCCCCCN(O)C(=O)/C=C/c1ccc(Cl)cc1Cl`, the Ki in data set [1] turned out to be 4.66 µM. The inhibition result in data set [2] was “Tde”.

Consider `C=CCCCCN(O)C(=O)/C=C/c1ccc(Cl)cc1Cl`, for which the Ki in data set [1] stood at 6.31 µM. In addition, in data set [2], the inhibition result is “Tde”.

With `C=CCN(O)C(=O)/C=C/c1ccc(Cl)cc1Cl`, in data set [1], the Ki is over 16 µM.

For the compound `C=CN(O)C(=O)/C=C/c1ccc(Cl)cc1Cl`, the Ki in data set [1] was over 32 µM.

Regarding `O=C(/C=C/c1ccc(Cl)cc1Cl)N(O)CCCCCC1CC1`, in data set [3], the inhibition result is “Active”. The compound also had a half-life in data set [4] of 33 min.

For the compound `CCCCCCCN(O)C(=O)/C=C/c1ccc(Cl)cc1Cl`, the Ki in data set [1] amounted to 2.47 µM.

As to `C=CCCCN(O)C(=O)/C=C/c1ccc(Cl)cc1Cl`, the Ki in data set [1] was over 8 µM. In addition, the inhibition entry in data set [2] was “Tde”.

In the case of `C=CCCCCCCN(O)C(=O)/C=C/c1ccc(Cl)cc1Cl`, in data set [1], the Ki came out at 2.84 µM. For the same compound, in data set [2], the inhibition result was “Tde”.
